Measured values reported in the supplement of paper PMC10307832.

Columns and labels:
Assay in all cases: relative viability (nuclei count vs DMSO), 5 days (fraction); higher = more cells survive
[1] = system: EMC-BAC-2
Method in brief: (§1)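 Relative viability was taken as the ratio of nuclei in treated wells to nuclei in vehicle wells. Lung cancer cell lines in 1536-well plates received compounds by pin tool one day after seeding, either one drug alone or a fixed anchor-drug dose plus five library-drug doses (not always all listed) in √10 steps. Nuclei were counted on 4× images after 5 days of treatment, and values are medians of duplicate plates.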

[2] = system: EPLC-272H
Method in brief: as §1

[3] = system: H3255
Method in brief: as §1

[4] = system: HOP-62
Method in brief: as §1

[5] = system: LCLC-97TM1
Method in brief: as §1

[6] = system: LXF-289
Method in brief: as §1

[7] = system: NCI-H1734
Method in brief: as §1

[8] = system: NCI-H1915
Method in brief: as §1

[9] = system: NCI-H1993
Method in brief: as §1

[10] = system: NCI-H2009
Method in brief: as §1

[11] = system: NCI-H2023
Method in brief: as §1

In the case of O=c1cc(N2CCOCC2)oc2c(-c3cccc4c3sc3ccccc34)cccc12 + O=C(c1cc(Cc2n[nH]c(=O)c3ccccc23)ccc1F)N1CCN(C(=O)C2CC2)CC1 [Olaparib] (partner 8 µM), the relative viability ([1]; first compound 0.01 µM) is reported as 0.486, the relative viability ([1]; first compound 0.03162 µM) is reported as 0.507 and the relative viability ([1]; first compound 0.1 µM) is reported as 0.548. The relative viability ([1]; first compound 0.3162 µM) was 0.412, the relative viability ([1]; first compound 1 µM) was 0.489 and the relative viability ([2]; first compound 0.01 µM) was 0.761. The relative viability ([2]; first compound 0.03162 µM) was 0.934, the relative viability ([2]; first compound 0.1 µM) was 0.848 and the relative viability ([2]; first compound 0.3162 µM) was 0.776. It also gave a relative viability ([2]; first compound 1 µM) of 0.824, a relative viability ([3]; first compound 0.01 µM) of 0.544 and a relative viability ([3]; first compound 0.03162 µM) of 0.517. The relative viability ([3]; first compound 0.1 µM) was 0.567, the relative viability ([3]; first compound 0.3162 µM) was 0.512 and the relative viability ([3]; first compound 1 µM) was 0.53. The relative viability ([4]; first compound 0.01 µM) was 0.441, the relative viability ([4]; first compound 0.03162 µM) was 0.58 and the relative viability ([4]; first compound 0.1 µM) was 0.409. For the same molecule, the relative viability ([4]; first compound 0.3162 µM) was 0.523, the relative viability ([4]; first compound 1 µM) was 0.377 and the relative viability ([5]; first compound 0.01 µM) was 0.316. The relative viability ([5]; first compound 0.03162 µM) was 0.374, the relative viability ([5]; first compound 0.1 µM) was 0.502 and the relative viability ([5]; first compound 0.3162 µM) was 0.269. The relative viability ([5]; first compound 1 µM) was 0.432, the relative viability ([6]; first compound 0.01 µM) was 1.01 and the relative viability ([6]; first compound 0.03162 µM) was 1.08. It also gave a relative viability ([6]; first compound 0.1 µM) of 1.08, a relative viability ([6]; first compound 0.3162 µM) of 1.03 and a relative viability ([6]; first compound 1 µM) of 1.11. For the same molecule, the relative viability ([7]; first compound 0.01 µM) was 0.686, the relative viability ([7]; first compound 0.03162 µM) was 0.638 and the relative viability ([7]; first compound 0.1 µM) was 0.685. The relative viability ([7]; first compound 0.3162 µM) was 0.638, the relative viability ([7]; first compound 1 µM) was 0.652 and the relative viability ([8]; first compound 0.01 µM) was 0.258. The relative viability ([8]; first compound 0.03162 µM) was 0.269, the relative viability ([8]; first compound 0.1 µM) was 0.301 and the relative viability ([8]; first compound 0.3162 µM) was 0.26. The relative viability ([8]; first compound 1 µM) was 0.262, the relative viability ([9]; first compound 0.01 µM) was 1.08 and the relative viability ([9]; first compound 0.03162 µM) was 0.958. For the same molecule, the relative viability ([9]; first compound 0.1 µM) was 1.23, the relative viability ([9]; first compound 0.3162 µM) was 1.04 and the relative viability ([9]; first compound 1 µM) was 0.984. For the same molecule, the relative viability ([10]; first compound 0.01 µM) was 0.718, the relative viability ([10]; first compound 0.03162 µM) was 0.651 and the relative viability ([10]; first compound 0.1 µM) was 0.592. The relative viability ([10]; first compound 0.3162 µM) was 0.652, the relative viability ([10]; first compound 1 µM) was 0.673 and the relative viability ([11]; first compound 0.01 µM) was 0.514. For the same molecule, the relative viability ([11]; first compound 0.03162 µM) was 0.471.
